In US4990499A, “Anti-herpes simplex virus activity of 5-alkoxymethyl-2'-deoxycytidimes and their 5-monophosphates” (priority 1989, dated 1991):
pEC50: −log10 of the molar value.

How the values were obtained:
Type in all cases: cell-based
[1] = tested on: Herpes simplex virus type 1 (HSV-1); assay: Antiviral activity against HSV-1, viral plaque reduction (ED50); conditions: FIG. 13; HSV-1 KOS and 76, Vero, 20 PFU
[2] = tested on: Herpes simplex virus type 1 (HSV-1); assay: as above; conditions: for reversal of antiviral activity of MMdCyd, order of potency: FIGS. 4 to 6
Method: (§1) Infected cells were treated with different concentrations of MMdCyd and the concentration required to reduce viral plaque formation by 50%, i.e. ED50, was determined.
(§2) ^a ED50 : Concentration required to reduce viral plaque formatio
Vero cells were infected with the KOS strain of HSV-1. The compound of compounds indicated in Table 2, below, and are shown graphically in FIGS. 1, (H4 dUrd) and 2 (H4 Urd).
^a Antiviral assays were carried out using Vero cells. All compounds
were added immediately after virus infection.
(§3) The antiviral activity of MMdCyd in the presence of H4 dUrd was determined against several strains of HSV-1 and HSV-2.
Vero cells were infected with HSV-1, strain 76 and treated with MMdCyd at different times post virus infection.
The antiviral activity, ^a cyctotoxicity* and antiviral indices of MMdCyd in the presence of H4 dUrd, dGuo and H4 dUrd+dGuo were determined.
^a Antiviral assays were carried out using Vero cells. Compounds were
added immediately after virus infection. Virus HSV1, strains KOS and 76;
KOS, virus input = 50 PFU

[3] = tested on: Herpes simplex virus type 2 (HSV-2); assay: Antiviral activity against HSV-2, viral plaque reduction (ED50); conditions: HSV-2
Method: as §1, §2, §3
^a Antiviral assays were carried out using Vero cells. Virus input 50
^b ED50 : Concentration required to reduce viral plaque formatio

[4] = tested on: Deoxynucleoside Triphosphate (dNTP) Pools in Uninfected Vero Cells; assay: Deoxynucleoside triphosphate (dNTP) pools in uninfected (mock-infected) Vero cells
Method: Vero cells were treated with MMdCyd, H4 dUrd and MMdCyd+H4 dUrd. The cells were then assayed for the presence of deoxynucleoside triphosphates. Untreated Vero cells were also assayed for the presence of deoxynucleoside triphosphates, to provide a control.
^a Cells were mock infected for one hour. Different treatments were
^b Values are means of at least two assays of triplicate cell
(§4) Vero cells and HSV-infected Vero cells were treated with dGUO and dGUO and H4 dUrd. The cells were then assayed for the presence of deoxynucleoside triphosphates. Untreated Vero cells were also assayed for the presence of deoxynucleoside triphophate to provide a control.
Vero cells were treated with N-methyl-MMdCyd. The cells were then assayed for dNTP pools.

[5] = tested on: Deoxynucleoside Triphosphate (dNTP) Pools in Vero Cells Infected with Herpes Simplex Virus Type 1; assay: Deoxynucleoside triphosphate (dNTP) pools in HSV-1 infected Vero cells; conditions: Table 16, HSV-1 KOS infected Vero, treatment 7 hours, ± S.E.
Method: Example 9 was repeated, except that the Vero cells subjected to the treatment had all been infected with HSV-1 KOS strain prior to the treatment.
^a Cells were infected with 10 PFU/cell of HSV1 KOS strain for one
hour. Treatments were given for seven hours.
^a Cells were infected with 10 PFU/cell of HSV1, KOS strain after
^b H4 dUrd in MEM was added immediately after adsorption and
^c H4 dUrd in MEM was added immediately after adsorption and
as §4
^c Cells were infected with 10 PFU/cell of HSV1 strain KOS for one

[6] = Table 16, uninfected Vero, treatment 7 hours, ± S.E.

**Q.** With Nc1ncnc2c1ncn2[C@H]1C[C@H](O)[C@@H](CO)O1 [Deoxyadenosine, reference compound] as the molecule, how does the “effect on antiviral activity of MMdCyd” value [1] read?
**A.** no effect on antiherpes activity of MMdCyd

**Q.** With COCc1cn([C@H]2C[C@H](OC(C)=O)[C@@H](COC(C)=O)O2)c(=O)nc1N [Di-AC-MMdCyd, 5-methoxymethyl-3',5'-diacetyl-2'-deoxycytidine] as the molecule, how does the pEC50 [2] read?
**A.** 3.27

**Q.** And the “potency against HSV-1 relative to parent compound (times lower)” value ([2]; vs MMdCyd, cell culture)?
**A.** approximately 20 times

**Q.** With O=C1NC(O)CCN1[C@@H]1O[C@H](CO)[C@@H](O)[C@H]1O (stereo partly drawn) [H4 Urd, tetrahydrouridine, reference compound] as the molecule, how does the “potentiation of the activity of MMdCyd (fold)” value ([2]; H4 Urd with MMdCyd) read?
**A.** approximately 2 fold

**Q.** How did the pEC50 [2] turn out when COCc1cn([C@H]2C[C@H](O)[C@@H](COP(=O)(O)O)O2)c(=O)nc1N [MMdCMP, 5-methoxymethyl-2'-deoxycytidine monophosphate] was run?
**A.** 4.85 to 5.00

**Q.** And the antiviral activity ([2]; HSV-1)?
**A.** potent inhibitor of HSV-1

**Q.** Cc1cn([C@H]2C[C@H](O)[C@@H](CO)O2)c(=O)nc1N [MedCyd, 5-methyl-2'-deoxycytidine, reference compound] was tested. Which pEC50 [2] did it give?
**A.** < 3.28

**Q.** And the antiviral activity ([2]; up to 128 μg/ml, HSV-1)?
**A.** devoid of activity

**Q.** How did the pEC50 [2] turn out when CNc1nc(=O)n([C@H]2C[C@H](O)[C@@H](COP(=O)(O)O)O2)cc1COC [N-Me-MMdCMP, 5-Methoxymethyl-N^4-methyl-2'-deoxycytidine-5'-monophosphate] was run?
**A.** < 2.75

**Q.** And the antiviral activity ([2]; HSV-1)?
**A.** completely inert

**Q.** And the antiviral activity [3]?
**A.** completely inert

**Q.** With CNc1nc(=O)n([C@H]2C[C@H](O)[C@@H](CO)O2)cc1COC [N-Me-MMdCyd, 5-methoxymethyl-N4-methyl-2'-deoxycytidine] as the molecule, how does the pEC50 [2] read?
**A.** < 2.75

**Q.** What about the antiherpes activity ([2]; summary statement) of the same molecule?
**A.** completely devoid of antiherpes activity

**Q.** And the antiviral activity ([2]; up to 1796 μM)?
**A.** devoid of antiviral activity

**Q.** What about the dATP pool [4, 6] of the same molecule?
**A.** 32.2 ± 2.5 .rho. moles/10^6 cells

**Q.** What about the dCTP pool [4, 6] of the same molecule?
**A.** 17.3 ± 1.32 .rho. moles/10^6 cells

**Q.** And the dGTP pool [4, 6]?
**A.** 36.3 ± 1.67 .rho. moles/10^6 cells

**Q.** What about the dTTP pool [4, 6] of the same molecule?
**A.** 38.6 ± 1.22 .rho. moles/10^6 cells

**Q.** What about the “effect on dNTP pools” value ([4]; Vero cells) of the same molecule?
**A.** did not cause perturbation of dNTP pools to any significant degree

**Q.** And the dATP pool [5]?
**A.** 7.4 ± 0.4 .rho. moles/10^6 cells

**Q.** What about the dCTP pool [5] of the same molecule?
**A.** 18 ± 1.08 .rho. moles/10^6 cells

**Q.** What about the dGTP pool [5] of the same molecule?
**A.** 58.9 ± 2.22 .rho. moles/10^6 cells

**Q.** And the dTTP pool [5]?
**A.** 419 ± 10.6 .rho. moles/10^6 cells

**Q.** For Nc1ccn([C@H]2C[C@H](O)[C@@H](CO)O2)c(=O)n1 [deoxycytidine, 2'-deoxycytidine, reference compound], which “reversal of antiviral activity of MMdCyd, order of potency” value (from here on “reversal of antiviral activity of MMdCyd”) [2] is on record?
**A.** deoxythymidine>deoxyuridine>deoxycytidine

**Q.** What about the “effect on dose-response curve of MMdCyd” value ([2]; equimolar concentrations, FIG. 5) of the same molecule?
**A.** parallel upward shift

**Q.** How did the “reversal of antiviral activity of MMdCyd” value [2] turn out when Cc1cn([C@H]2C[C@H](O)[C@@H](CO)O2)c(=O)[nH]c1=O [deoxythymidine, 2'-deoxyribosylthymidine (thymidine), reference compound] was run?
**A.** deoxythymidine>deoxyuridine>deoxycytidine

**Q.** O=c1ccn([C@H]2C[C@H](O)[C@@H](CO)O2)c(=O)[nH]1 [deoxyuridine, 2'-deoxyuridine, reference compound] was tested. Which “reversal of antiviral activity of MMdCyd” value [2] did it give?
**A.** deoxythymidine>deoxyuridine>deoxycytidine
